Measurements: BigSolDB 2.1

O=C(O)c1cc([N+](=O)[O-])ccc1O
solubility (mole fraction)
Conditions	278.15 K	283.15 K	288.15 K	293.15 K	298.15 K	303.15 K	308.15 K	313.15 K	318.15 K	323.15 K
in 1,4-dioxane	–	–	0.105	0.112	0.12	0.129	0.137	0.147	0.158	0.168
in DMF	0.0752	0.0819	0.0894	0.0993	0.111	0.126	0.143	0.161	0.181	0.204
in NMP	0.105	0.111	0.119	0.13	0.141	0.156	0.17	0.187	0.204	0.223
in acetonitrile	0.0327	0.0366	0.0416	0.0481	0.0553	0.0632	0.0724	0.0814	0.0908	0.102
in ethanol	0.0281	0.0307	0.0338	0.0379	0.0429	0.0481	0.0541	0.0605	0.0675	0.0752
in ethyl acetate	0.0202	0.0234	0.027	0.031	0.0355	0.0404	0.0455	0.0509	0.0566	0.063
in ethylene glycol	0.00911	0.0116	0.0142	0.0164	0.0197	0.0233	0.0262	0.0308	0.035	0.0393
in isobutanol	0.0125	0.0149	0.0179	0.0211	0.0252	0.0296	0.0343	0.0383	0.043	0.0495
in isopropanol	0.0255	0.0286	0.0322	0.0367	0.0406	0.046	0.052	0.0575	0.0641	0.0728
in methanol	0.0316	0.0345	0.038	0.0427	0.0479	0.0538	0.0596	0.0661	0.0728	0.0807
in n-butanol	0.0173	0.0203	0.0237	0.0275	0.032	0.0368	0.0421	0.0474	0.0533	0.06
in n-propanol	0.0232	0.0266	0.0302	0.0342	0.0387	0.0433	0.0488	0.0537	0.0597	0.0656
in water	3.03e-05	3.95e-05	5.22e-05	6.76e-05	8.62e-05	0.000107	0.000133	0.000165	0.000202	0.000253
